# Publication PMC9798004 (Frontiers in Psychiatry, 2022)
# Entries after “also recorded” stand apart in the source; their conditions may differ.
# Tests used:
# Type in all cases: cell-based
# ADORA3 = biological target: T1, ADORA3 (Homo sapiens, UniProt P0DMS8); assay: PathHunter β-arrestin assay; conditions: antagonist mode vs EC80 of control agonist, 10-point curve
# T1 construct: host or cells: CHO
# GPR119 = biological target: T2, GPR119 (Homo sapiens, UniProt Q8TDV5); assay: PathHunter β-arrestin assay; conditions: antagonist mode, 30 μM
# T2 construct: purchased Eurofins DiscoverX (PathHunter gpcrMAX)
# T2 sequence (Q8TDV5 1-335): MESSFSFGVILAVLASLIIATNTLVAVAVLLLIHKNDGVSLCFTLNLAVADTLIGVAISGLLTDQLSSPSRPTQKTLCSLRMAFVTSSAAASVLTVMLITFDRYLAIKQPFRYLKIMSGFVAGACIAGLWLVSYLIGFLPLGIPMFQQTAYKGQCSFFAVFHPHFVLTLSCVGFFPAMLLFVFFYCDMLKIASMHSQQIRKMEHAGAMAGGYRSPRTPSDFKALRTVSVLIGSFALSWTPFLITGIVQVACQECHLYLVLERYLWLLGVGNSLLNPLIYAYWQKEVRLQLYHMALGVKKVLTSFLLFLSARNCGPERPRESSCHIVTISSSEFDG
# CALCRL-RAMP2 = CALCRL-RAMP2 (Homo sapiens, UniProt O60895+Q16602); assay: PathHunter β-arrestin assay; conditions: antagonist mode vs EC80 of control agonist, 10-point curve
# Sequence of CALCRL-RAMP2 (Q16602 23-461): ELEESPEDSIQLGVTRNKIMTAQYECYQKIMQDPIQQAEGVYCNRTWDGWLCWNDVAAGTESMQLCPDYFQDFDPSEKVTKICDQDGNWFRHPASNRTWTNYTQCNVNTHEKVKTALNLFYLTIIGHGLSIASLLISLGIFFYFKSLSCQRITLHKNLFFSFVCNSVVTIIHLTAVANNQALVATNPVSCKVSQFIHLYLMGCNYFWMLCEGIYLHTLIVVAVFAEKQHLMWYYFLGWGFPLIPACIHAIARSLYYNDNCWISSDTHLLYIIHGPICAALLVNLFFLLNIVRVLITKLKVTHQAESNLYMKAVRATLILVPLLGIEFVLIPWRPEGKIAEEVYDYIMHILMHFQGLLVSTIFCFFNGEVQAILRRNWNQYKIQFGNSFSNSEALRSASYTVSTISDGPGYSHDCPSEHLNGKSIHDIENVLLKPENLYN
# Sequence of CALCRL-RAMP2 (O60895 43-175 partner): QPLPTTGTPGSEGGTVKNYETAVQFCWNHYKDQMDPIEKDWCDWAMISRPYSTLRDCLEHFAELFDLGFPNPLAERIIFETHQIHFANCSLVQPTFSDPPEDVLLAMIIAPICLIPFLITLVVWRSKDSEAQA
# MC5R = MC5R (Homo sapiens, UniProt P33032); assay: PathHunter β-arrestin assay; conditions: antagonist mode vs EC80 of control agonist, 10-point curve
# Sequence of MC5R (P33032 whole entry): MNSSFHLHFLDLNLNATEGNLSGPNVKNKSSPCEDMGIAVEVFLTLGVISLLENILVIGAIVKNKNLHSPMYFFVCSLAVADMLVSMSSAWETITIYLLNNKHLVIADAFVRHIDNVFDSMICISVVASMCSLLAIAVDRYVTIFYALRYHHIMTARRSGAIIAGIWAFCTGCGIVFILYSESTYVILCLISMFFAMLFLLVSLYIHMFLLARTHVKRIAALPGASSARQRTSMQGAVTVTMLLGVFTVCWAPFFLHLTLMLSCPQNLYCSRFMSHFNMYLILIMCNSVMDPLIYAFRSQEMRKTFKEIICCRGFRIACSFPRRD
# HRH2 = HRH2 (Homo sapiens, UniProt P25021); assay: PathHunter β-arrestin assay; conditions: antagonist mode vs EC80 of control agonist, 10-point curve
# Sequence of HRH2 (P25021 whole entry): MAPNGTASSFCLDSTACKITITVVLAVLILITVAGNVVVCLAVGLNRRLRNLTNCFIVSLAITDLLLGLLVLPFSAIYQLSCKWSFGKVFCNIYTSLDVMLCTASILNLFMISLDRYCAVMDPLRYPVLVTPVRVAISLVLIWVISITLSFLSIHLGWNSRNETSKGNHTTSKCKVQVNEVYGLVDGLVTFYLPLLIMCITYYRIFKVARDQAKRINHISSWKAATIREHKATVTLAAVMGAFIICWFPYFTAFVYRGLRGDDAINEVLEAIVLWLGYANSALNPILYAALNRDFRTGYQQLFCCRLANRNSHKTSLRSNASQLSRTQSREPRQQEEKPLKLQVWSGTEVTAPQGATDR
# FPR1 = biological target: T3, FPR1 (Homo sapiens, UniProt P21462); assay: PathHunter β-arrestin assay; conditions: antagonist mode vs EC80 of control agonist, 10-point curve
# T3 sequence (P21462 1-350): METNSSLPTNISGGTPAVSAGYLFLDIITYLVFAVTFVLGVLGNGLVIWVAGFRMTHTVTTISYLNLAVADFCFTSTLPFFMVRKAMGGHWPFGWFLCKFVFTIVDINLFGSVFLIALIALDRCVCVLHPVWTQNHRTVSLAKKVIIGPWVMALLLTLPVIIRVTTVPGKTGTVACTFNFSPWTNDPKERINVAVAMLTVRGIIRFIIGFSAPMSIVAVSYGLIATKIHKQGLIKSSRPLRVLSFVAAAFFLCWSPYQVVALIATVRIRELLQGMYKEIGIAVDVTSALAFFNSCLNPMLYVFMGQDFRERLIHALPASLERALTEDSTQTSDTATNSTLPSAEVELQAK
# ADRA2B = ADRA2B (Homo sapiens, UniProt P18089)
# Sequence of ADRA2B (P18089 whole entry): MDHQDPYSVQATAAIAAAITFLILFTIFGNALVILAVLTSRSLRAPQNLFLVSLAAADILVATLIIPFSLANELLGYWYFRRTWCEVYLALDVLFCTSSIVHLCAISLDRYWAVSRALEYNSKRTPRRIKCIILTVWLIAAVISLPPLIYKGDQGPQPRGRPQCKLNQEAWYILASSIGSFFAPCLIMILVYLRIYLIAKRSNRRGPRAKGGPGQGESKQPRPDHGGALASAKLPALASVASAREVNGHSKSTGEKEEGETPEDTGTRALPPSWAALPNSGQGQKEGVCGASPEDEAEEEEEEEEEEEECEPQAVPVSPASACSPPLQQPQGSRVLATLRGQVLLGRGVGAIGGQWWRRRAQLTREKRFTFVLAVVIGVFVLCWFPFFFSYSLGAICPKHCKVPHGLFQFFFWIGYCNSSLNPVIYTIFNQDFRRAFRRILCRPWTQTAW
# DRD2L = DRD2L (Homo sapiens, UniProt P14416); assay: PathHunter β-arrestin assay; conditions: antagonist mode, up to 30 μM
# Sequence of DRD2L (P14416 whole entry): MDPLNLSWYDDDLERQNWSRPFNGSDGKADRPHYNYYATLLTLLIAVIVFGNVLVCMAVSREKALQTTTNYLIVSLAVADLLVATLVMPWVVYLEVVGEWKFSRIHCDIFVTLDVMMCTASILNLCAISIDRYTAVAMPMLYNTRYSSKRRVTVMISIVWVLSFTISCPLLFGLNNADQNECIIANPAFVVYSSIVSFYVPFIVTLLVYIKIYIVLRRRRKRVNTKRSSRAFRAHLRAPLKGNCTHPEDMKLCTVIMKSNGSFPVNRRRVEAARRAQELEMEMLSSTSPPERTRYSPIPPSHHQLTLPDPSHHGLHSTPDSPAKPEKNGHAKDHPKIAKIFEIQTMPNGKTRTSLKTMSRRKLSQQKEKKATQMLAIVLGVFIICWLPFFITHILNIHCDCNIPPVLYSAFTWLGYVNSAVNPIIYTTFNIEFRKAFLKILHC
# DRD5 = DRD5 (Homo sapiens, UniProt P21918); assay: PathHunter β-arrestin assay; conditions: antagonist mode vs EC80 of control agonist, 10-point curve
# Sequence of DRD5 (P21918 whole entry): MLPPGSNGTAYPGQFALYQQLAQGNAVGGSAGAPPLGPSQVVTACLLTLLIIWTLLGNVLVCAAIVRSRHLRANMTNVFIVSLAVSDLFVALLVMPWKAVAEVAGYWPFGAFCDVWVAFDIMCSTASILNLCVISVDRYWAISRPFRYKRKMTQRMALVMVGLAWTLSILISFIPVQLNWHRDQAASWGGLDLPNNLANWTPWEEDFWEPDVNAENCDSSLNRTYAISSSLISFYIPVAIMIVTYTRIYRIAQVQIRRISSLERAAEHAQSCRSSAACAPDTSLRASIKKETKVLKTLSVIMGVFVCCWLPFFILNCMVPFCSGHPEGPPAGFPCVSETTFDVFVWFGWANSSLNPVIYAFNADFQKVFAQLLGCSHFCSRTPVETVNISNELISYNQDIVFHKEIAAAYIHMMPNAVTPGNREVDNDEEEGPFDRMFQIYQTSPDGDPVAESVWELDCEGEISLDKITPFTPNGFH
# CALCR-RAMP2 = CALCR-RAMP2 (Homo sapiens, UniProt O60895+P30988); assay: PathHunter β-arrestin assay; conditions: antagonist mode vs EC80 of control agonist, 10-point curve
# Sequence of CALCR-RAMP2 (P30988 25-474): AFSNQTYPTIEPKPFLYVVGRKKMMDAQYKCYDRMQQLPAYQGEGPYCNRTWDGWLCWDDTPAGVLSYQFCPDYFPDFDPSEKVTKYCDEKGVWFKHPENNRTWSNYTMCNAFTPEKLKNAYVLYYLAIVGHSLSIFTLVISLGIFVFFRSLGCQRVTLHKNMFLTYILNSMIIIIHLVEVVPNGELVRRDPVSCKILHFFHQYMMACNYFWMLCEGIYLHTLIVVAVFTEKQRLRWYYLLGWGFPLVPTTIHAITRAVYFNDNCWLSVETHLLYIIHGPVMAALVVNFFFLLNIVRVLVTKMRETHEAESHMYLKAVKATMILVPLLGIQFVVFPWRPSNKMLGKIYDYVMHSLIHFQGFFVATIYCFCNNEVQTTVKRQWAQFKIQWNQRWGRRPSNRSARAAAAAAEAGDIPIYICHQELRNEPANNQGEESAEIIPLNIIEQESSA
# Sequence of CALCR-RAMP2 (O60895 43-175 partner): as the sequence (O60895 43-175 partner) above
# ADRA2C = biological target: T4, ADRA2C (Homo sapiens, UniProt P18825); assay: PathHunter β-arrestin assay
# T4 sequence (P18825 1-462): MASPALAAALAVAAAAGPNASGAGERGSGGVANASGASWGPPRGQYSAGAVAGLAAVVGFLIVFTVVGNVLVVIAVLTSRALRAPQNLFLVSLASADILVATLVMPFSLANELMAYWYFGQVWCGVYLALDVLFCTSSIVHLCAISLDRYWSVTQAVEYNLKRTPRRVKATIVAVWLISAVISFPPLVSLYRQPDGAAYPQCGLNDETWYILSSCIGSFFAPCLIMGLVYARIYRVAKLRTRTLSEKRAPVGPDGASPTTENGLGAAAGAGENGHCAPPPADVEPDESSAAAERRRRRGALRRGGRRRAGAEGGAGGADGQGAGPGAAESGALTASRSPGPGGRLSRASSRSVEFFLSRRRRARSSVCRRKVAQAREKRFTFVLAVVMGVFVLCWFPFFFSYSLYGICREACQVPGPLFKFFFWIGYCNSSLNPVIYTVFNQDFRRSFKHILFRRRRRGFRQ
# CHRM2 = biological target: T5, CHRM2 (Homo sapiens, UniProt P08172); assay: PathHunter β-arrestin assay; conditions: antagonist mode vs EC80 of control agonist, 10-point curve
# T5 sequence (P08172 1-466): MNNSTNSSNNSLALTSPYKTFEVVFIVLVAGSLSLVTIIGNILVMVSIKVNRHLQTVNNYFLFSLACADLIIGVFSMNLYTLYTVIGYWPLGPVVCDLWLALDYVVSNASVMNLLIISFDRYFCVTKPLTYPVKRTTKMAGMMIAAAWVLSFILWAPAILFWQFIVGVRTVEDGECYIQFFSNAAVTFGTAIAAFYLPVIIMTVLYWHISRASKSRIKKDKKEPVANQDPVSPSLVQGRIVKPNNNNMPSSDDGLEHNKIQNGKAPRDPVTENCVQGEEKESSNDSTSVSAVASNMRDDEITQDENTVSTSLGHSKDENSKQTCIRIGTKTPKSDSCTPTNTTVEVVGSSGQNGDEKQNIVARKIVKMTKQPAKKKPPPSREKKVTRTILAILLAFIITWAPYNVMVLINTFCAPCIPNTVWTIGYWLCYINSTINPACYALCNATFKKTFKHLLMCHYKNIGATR
# T1 sequence (P0DMS8 whole entry): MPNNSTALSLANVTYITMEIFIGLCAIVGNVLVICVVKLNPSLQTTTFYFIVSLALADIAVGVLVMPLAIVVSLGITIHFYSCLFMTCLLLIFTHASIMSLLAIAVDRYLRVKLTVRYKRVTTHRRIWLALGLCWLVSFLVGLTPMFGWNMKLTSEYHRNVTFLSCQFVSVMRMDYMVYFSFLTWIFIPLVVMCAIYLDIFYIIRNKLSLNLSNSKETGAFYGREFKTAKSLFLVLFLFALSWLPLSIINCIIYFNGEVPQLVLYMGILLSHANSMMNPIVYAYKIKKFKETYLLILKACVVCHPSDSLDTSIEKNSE
smiles,measurement,setting,value
COC(=O)[C@@H](NC(=O)c1nn(Cc2ccc(F)cc2)c2ccccc12)C(C)C [AMB-FUBINACA],IC50,ADORA3,14.6 µM
same,inhibition in single-point screen,GPR119,inhibited to the greatest extent of any antagonist mode target
same,IC50,CALCRL-RAMP2,10.1 µM
same,IC50,MC5R,14.1 µM
same,IC50,HRH2,13.1 µM
same,IC50,FPR1,7.91 µM
same,IC50,ADRA2B,2290 nM
same,inhibitory activity at lower concentrations,"ADRA2B; antagonist mode, 1 μM",appreciable inhibitory activity
same,inhibitory activity in concentration-response,DRD2L,Activity was only observed at the highest concentration (30 μM); also recorded: only inhibited at the highest 30 μM concentration
same,IC50,DRD5,10.7 µM
same,IC50,CALCR-RAMP2,10.8 µM
same,IC50,"ADRA2C; antagonist mode vs EC80 of control agonist, 10-point curve",7.3 µM
same,inhibitory activity at lower concentrations,"ADRA2C; antagonist mode, 1 μM",appreciable inhibitory activity
same,maximum inhibition,"ADRA2C; antagonist mode, concentration-response up to 30 μM",63.11%
same,IC50,CHRM2,12.9 µM
